According to US20250270165A1, “COMPOSITIONS FOR AND METHODS OF MODULATING RNA STABILITY” (Duke University, priority 2022, published 2025):
“And” between values parts separate entries of the source, which are not always exact repeats. Equal entries are not always repeated. “Also recorded” adds a separate entry of the source. Where two headings read alike, the source gives them in different places.

Tests used:
[1] = tested on: MALAT1 triple helix; assay: Differential scanning fluorimetry (DSF), triplex thermal stability; assay type: binding, human
Experimental: Differential Scanning Fluorimetry. Differential scanning fluorimetry experiments were performed as previously reported. (Donlic A, et al. (2020) Nucleic Acids Res. 48(14):7653-7664). All experiments were performed in white 96 well plates in a LightCycler® 96 (Roche). In a typical experiment, 4 μM of RNA was annealed in the same buffer used for indicator displacement assays (20 mM HEPES-KOH, 52.6 mM KCl, 0.1 mM MgCl2, pH=7.4) by heating at 95° C. for 3 minutes, snap-cooling on ice for 10 minutes, and leaving the solution at room temperature for 1 hr. Then, 42 μL of this solution was aliquoted to wells and 5 μM of ligand was added (2.5 μL of water, 2.0 μL of DMSO, 0.5 μL of 500 μM small molecule stock). The mixture was left to incubate at room temperature for 5 minutes, after which 3 μL of a 20 µM Quant-iT™ RiboGreen™ (ThermoFisher Scientific) dye stock solution in appropriate buffer was added to each well. The 96 well plate was then sealed with an optically clear foil and centrifuged for 1 minute at 4000 rpm prior to being placed in the instrument. The light cycler program was created by selecting the melting curve method; fluorescence intensity was monitored using the SYBR Green I/HRM dye filter combination (465-510 nm) from 37-98° C. at a ramp rate of 0.01° C./second with 150 acquisitions per ° C. Melting profiles were obtained by Tm analysis in the LightCycler® 96 software (SW 1.1).

[2] = tested on: MALAT1 triple helix; assay: RiboGreen indicator displacement assay (IDA); assay type: binding, human
Experimental: Indicator Displacement Assay (DIA).
The protocol was adapted from a previously reported procedure. (Donlic A, et al. (2020) Nucleic Acids Res. 48(14):7653-7664). A serial dilution of the MALAT1 triple helix RNA was performed in HEPES buffer (20 mM HEPES-KOH, 52.6 mM KCl. 0.1 mM MgCl2, pH=7.4) in a 96 well plate in triplicate. […] of each dilution were transferred to a 384 well plate followed by […] of a 500 nM solution of RiboGreen dye in the same buffer (Invitrogen™). The plates were excited at 487 nm (8 nm slit) and emission was recorded at 530 nm (8 nm slit, focal height 11.3 mm) using a CLARIOstar plate reader (BMG labtech). The affinity of the dye for the RNA construct was determined by fitting the raw fluorescence in GraphPad Prism version 8.3.1 for Macintosh (GraphPad Software, La Jolla California USA, (www.graphpad.com)) by fitting to the Log[Agonist]vs. response-variable slope model that using Equation (1) below.
where Y is normalized % change in fluorescence intensity, X is RNA concentration, Bottom is lowest fluorescence % change and Top is highest fluorescence % change. Affinity of the dye for the RNA construct was used as the ideal RNA concentration (174 nM) for small molecule titrations.
A serial dilution of small molecule (0, 0.5 μM, […], 2.5 μM, […], 7.5 μM, 10.0 μM, 12.5 μM, 25 μM, 50 μM, 75 μM, 100 μM, 125 µM, 150 µM, 250 μM, 500 µM) was performed in HEPES buffer (20 mM HEPES-KOH, 52.6 mM KCl, 0.1 mM MgCl2, pH=7.4) in a 96 well plate in triplicate. Then, 8 μL of each dilution were transferred to a 384 well plate, followed by 8 μL of a 174 nM solution of MALAT1 RNA and 0.5 mM of RiboGreen™ (Invitrogen™). The RNA was previously annealed by heating to 95° C. for 5 minutes and cooling to 0° C. on ice for 30 minutes. The 384 well plates were shaken for 5 minutes, centrifuged at 4000 rpm for 1 minute, and incubated in the dark for 20 minutes. The plates were excited at 487 nm (8 nm slit) and emission was read at 525 nm (8 nm slit, focal height […]) using a CLARIOstar plate reader (BMG Labtech). Percent fluorescence indicator displacement (% FID) was calculated by subtracting and, subsequently, dividing by the blank wells with RNA-dye complex and no small molecule as shown in Equation (2).
Where F0 is the fluorescence of the blank well with RNA+dye and no small molecule and F is the fluorescence of the well with all three components (RNA+dye+small molecule).
Each technical triplicate was averaged, and the resulting FID values were averaged between three independent experiments. The binding curve and Log(CD50) value was obtained by using a non-linear fit curve (Log[Agonist]vs. response) with variable slope at four parameters (GraphPad Prism Software version for Macintosh 8.3.1, La Jolla, California, USA (www.graphpadprism.com)) as shown in Equation 1. Reported values are averages of three independent experiments standard deviation.

[3] = tested on: MALAT1 triple helix; assay: RNase A enzymatic degradation assay; assay type: biochemical, human; conditions: for stabilizing or destabilizing compound as listed in the description: listing in an aspect, degradation in an enzymatic assay versus control
Experimental: RNase A Enzymatic Degradation Assay.
The procedure was adapted from a published protocol for exonucleolytic enzymatic degradation assay. (Donlic A, et al. (2020) Nucleic Acids Res. 48(14):7653-7664). The MALAT1 destabilizing small molecules published by Le Grice (Abulwerdi F A, et al. (2019) ACS Chem Biol. 14(2):223-235) and co-workers SM5 and SM16 were purchased from ChemBridge. For a typical 70 μL reaction, […] of MALAT1 triple helix RNA was annealed in the same buffer used for IDA and DSF experiments (20 mM HEPES-KOH, 52 mM KCl, 0.1 mM MgCl2, pH=7.4) by heating at 95° C. for 3 minutes, snap-cooling on ice for 10 minutes, and leaving the solution at room temperature for 1 hr.
RNase A enzyme (ThermoFisher) was diluted to 1.46 nM and incubated with 1 M NaCl for 30-35 minutes to achieve ssRNA selectivity as reported. (Struhl K, et al. (1989) Current Protocols in Molecular Biology. 8(1):3.13.1-3.13.3). Next, the RNA was mixed with […] of a CC-rich DNA duplex, 0.2 mM of small molecule/DMSO and incubated at room temperature for 20 minutes. Following the incubation, […] of RNase A was added, and the reaction was incubated at 37° C. for 1 hour in a thermal cycler with a heated lid (Eppendorf). 4 μL timepoint aliquots were taken at 0, 5, 10, 30, and 60 minutes, 4 μL of 2×RNA loading dye was added to each aliquot (ThermoFischer Scientific), and samples were stored at −80° C. prior to gel analysis. Reactions were analyzed on pre-cast 15% PAGE-Urea gels (Invitrogen) in 1×TBE buffer. Aliquots were thawed from −80° C. storage and heated to 95° C. for 15 minutes prior to gel loading and […] were loaded in each well. Gels were run for 45 minutes at 180 V, stained with Diamond™ Nucleic Acid dye (Promega), and visualized on an iBright 500 (ThermoFisher). DMSO controls were ran with every set of 4 small molecules to ensure consistency of enzyme activity and RNA integrity. Gel band intensity of the MALAT1 triple helix and DNA loading control were quantified using ImageJ software. (Rueden C T, et al. (2017) BMC Bioinformatics. 18(1):529).
To quantify time-dependent endonucleolytic degradation for each sample, the intensity was normalized using Equation (3), and fold-difference was calculated as listed in Equation (4) as previously reported. (Donlic A, et al. (2020) Nucleic Acids Res. 48(14):7653-7664).
where y is fold-difference of the exonucleolytic degradation for the specific sample, with normalized areas for its specific time point x and time point 0 calculated as described in Equation (3). Percent RNA degraded was calculated for every time point using Equation (5).
% RNA degraded=(Normalized area (t0)−Normalized area (tx))*100 (Equation 5)
Experimental results shown in FIG. 6C are plotted as three independent replicates and standard deviation between replicates as error bars. Relative fold change between treated condition and DMSO was calculated from Equation (6).

[4] = tested on: LNCaP cells; assay: MTT assay in LNCaP cells; assay type: cell-based, human; conditions: for IC50: Homo sapiens
From the text: The MTT reagent (3-(4,5-dimethylthiazol-2-yl)-2,5-diphenyl-2H-tetrazolium bromide) is a mono-tetrazolium salt that consists of a positively charged quaternary tetrazole ring core containing four nitrogen atoms surrounded by three aromatic rings including two phenyl moieties and one thiazolyl ring. Reduction of MTT results in disruption of the core tetrazole ring and the formation of a violet-blue water-insoluble molecule called formazan. The MTT reagent can pass through the cell membrane as well as the mitochondrial inner membrane of viable cells presumably due to its positive charge as well as its lipophilic structure and is reduced to formazan by metabolically active cells. The chromogenic nature of this redox chemical reaction provides a colorimetric-based measurement of intracellular formazan production based on which the MTT assay was developed. Consequently, the assay has extensive utility as a cell metabolic activity assay.
In the first set of […] experiments, four (4) members of the small molecule library were examined in a MTT assay. […] The IC50 values and trends were similar to the apparent small molecule affinities for MALAT-1, supporting a MALAT-1 related mechanism for the toxicity. […] Ongoing cytotoxicity studies using other DMZ small molecule analogs (as well as DMZ-5, DMZ-P13, and DMZ-P17) continue to illuminate mechanism of action regarding toxicity to cancer cells.

[5] = 5-minute time point, relative to DMSO control
[6] = 48 hours, read-out: IC50 at 48 hours

## N=C(NCCc1cccnc1)c1cccc(/N=N/Nc2cccc(C(=N)NCCc3cccnc3)c2)c1 [DMZ-M3]
[1]
  effect on MALAT1 triplex thermal stability (DSF), in words: negligible thermal stabilization
[2]
  affinity for the MALAT1 triple helix (IDA), in words: moderate affinity

## N=C(NCc1ccccc1)c1cccc(/N=N/Nc2cccc(C(=N)NCc3ccccc3)c2)c1 [DMZ-M4]
[1]
  effect on MALAT1 triplex thermal stability (DSF), in words: increases in thermal stability; also recorded: mediocre affinity and thermal stabilization
[2]
  affinity for the MALAT1 triple helix (IDA), in words: mediocre affinity
[2]; 16-point titration, 20 mM HEPES-KOH, 52 mM KCl, 0.1 mM MgCl2, pH 7.4
  CD50 (50% competitive displacement dose): 36.6 µM
[3]; 5-minute time point
  increase of the amount of MALAT1 degraded at 5 minutes: 2 fold and > 2 fold
[3]; [5]
  stabilizer or destabilizer of MALAT1 triplex (RNase A degradation): destabilizers

## N=C(NCc1ccc(-c2ccccc2)cc1)c1cccc(/N=N/Nc2cccc(C(=N)NCc3ccc(-c4ccccc4)cc3)c2)c1 [DMZ-M7]
[4]; [6]
  IC50: 2.9 µM

## CN1CCN(CCNC(=N)c2cccc(/N=N/Nc3cccc(C(=N)NCCN4CCN(C)CC4)c3)c2)CC1 [DMZ-M10]
[4]
  IC50 relative to other tested library members, in words: higher IC50

## N=C(NCc1ccco1)c1cccc(/N=N/Nc2cccc(C(=N)NCc3ccco3)c2)c1 [DMZ-M15]
[1]
  effect on MALAT1 triplex thermal stability (DSF), in words: negligible thermal stabilization
[2]
  affinity for the MALAT1 triple helix (IDA), in words: moderate affinity
[3]
  stabilizing or destabilizing compound as listed in the description: stabilizing; also recorded: destabilizing

## CN(C)c1ccc(CN2CCC(CCNC(=N)c3ccc(/N=N/N(C)c4ccc(C(=N)NCCC5CCN(Cc6ccc(N(C)C)cc6)CC5)cc4)cc3)CC2)cc1 [DMZ-NMe-P38]
[3]
  stabilizing or destabilizing compound as listed in the description: destabilizing

## CN(/N=N/c1ccc(C(=N)NCCC2CCN(Cc3ccccc3)CC2)nc1)c1ccc(C(=N)NCCC2CCN(CC3C=CC=CC3)CC2)nc1 (stereo not shown) [DMZ-NMe-mPy-P1]
[3]
  stabilizing or destabilizing compound as listed in the description: destabilizing

## N=C(NCc1ccccc1)c1ccccc1/N=N/Nc1ccccc1C(=N)NCc1ccccc1 [DMZ-O4]
[2]
  affinity for the MALAT1 triple helix (IDA), in words: no affinity

## N=C(NCc1ccc(Cl)cc1)c1ccccc1/N=N/Nc1ccccc1C(=N)NCc1ccc(Cl)cc1 [DMZ-O5]
[3]; [5]
  stabilizer or destabilizer of MALAT1 triplex (RNase A degradation): much stronger destabilizing effect than DMZ-P5

## N=C(NCc1ccccc1Cl)c1ccccc1/N=N/Nc1ccccc1C(=N)NCc1ccccc1Cl [DMZ-O6]
[3]
  stabilizing or destabilizing compound as listed in the description: destabilizing; also recorded: stabilizing

## N=C(N)c1ccc(/N=N/Nc2ccc(C(=N)N)cc2)cc1 [DMZ-P0, diminazene, reference compound]
[1]
  effect on MALAT1 triplex thermal stability (DSF), in words: increases in thermal stability
[3]; [5]
  stabilizer or destabilizer of MALAT1 triplex (RNase A degradation): destabilizers
[4]
  IC50 relative to other tested library members, in words: much higher IC50

## CN(C)CCCNC(=N)c1ccc(/N=N/Nc2ccc(C(=N)NCCCN(C)C)cc2)cc1 [DMZ-P1]
[1]
  effect on MALAT1 triplex thermal stability (DSF), in words: increases in thermal stability
[1]; equimolar ratio of RNA:small molecule, compared to DMSO vehicle
  effect on Tm1 (ΔTm1): approximately 6.1 °C
[3]; [5]
  graded stabilizer/destabilizer class (change in degradation): weak destabilizer (weak destabilizer (<50% increase in degradation))
  stabilizer or destabilizer of MALAT1 triplex (RNase A degradation): destabilizers

## N=C(NCc1ccc(Cl)cc1)c1ccc(/N=N/Nc2ccc(C(=N)NCc3ccc(Cl)cc3)cc2)cc1 [DMZ-P5]
[2]; subunit R-5
  fold higher affinity with the para scaffold versus the ortho scaffold (DMZ-O5): 13 fold

## N=C(NCCC1CCN(Cc2ccccc2)CC1)c1ccc(/N=N/Nc2ccc(C(=N)NCCC3CCN(Cc4ccccc4)CC3)cc2)cc1 [DMZ-P13]
[4]; [6]
  IC50: 4.1 µM
[4]; 72 hours, read-out: IC50 at 72 hours
  IC50: 2.7 µM

## CCN(CCCCNC(=N)c1ccc(N/N=N/c2ccc(C(=N)NCCCN(CC)Cc3ccccc3)cc2)cc1)Cc1ccccc1 [DMZ-P14]
[3]
  stabilizing or destabilizing compound as listed in the description: stabilizing; also recorded: destabilizing
